# Laboratory results as given in patent US10385113B2, “Engineered FGF compositions and methods of use thereof” (THE BOARD OF TRUSTEES OF THE UNIVERSITY OF ARKANSAS, priority 2016, dated 2019).
# Assays:
# [1] = target: T1, human FGF-1 (hFGF-1) mutant R136E, SEQ ID NO: 4 (Homo sapiens, UniProt P05230, R137E); assay: Isothermal titration calorimetry (ITC) of FGF-1 mutant R136E with SOS; format: binding; conditions: 10 mM phosphate, 100 mM NaCl, 50 mM ammonium sulfate, pH 6.5, 25° C., FIG. 10C, read-out: dissociation constant (Kd)
# T1 construct: made in house
# Description: (§1) For WT hFGF-1, and mutant proteins were in the cell and at a concentration of 0.05 mM in a buffer of 10 mM phosphate, 100 mM NaCl, 50 mM ammonium sulfate, pH 6.5. […] The data was analyzed using Origin scientific plotting software.
# (§2) ITC is a method used to directly evaluate the affinity and enthalpy of binding reactions.
# [2] = target: T2, human FGF-1 (hFGF-1), wild type (wtFGF-1), SEQ ID NO: 2 (Homo sapiens, UniProt P05230); assay: Isothermal titration calorimetry (ITC) of wild-type FGF-1 with SOS; format: binding; conditions: FIG. 10A
# T2 construct: made in house
# Description: as §1, §2
# T2 sequence (P05230 16-155): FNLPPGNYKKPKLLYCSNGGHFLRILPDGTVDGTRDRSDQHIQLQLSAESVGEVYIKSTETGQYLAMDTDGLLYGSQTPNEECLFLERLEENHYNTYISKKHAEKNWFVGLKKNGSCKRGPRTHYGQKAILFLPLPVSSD
# T1 sequence (P05230 16-155 R137E): as the sequence (P05230 16-155) above, with R122E counted along it
smiles,measurement,setting,value
"O=S(=O)(O)OC[C@H]1O[C@@](COS(=O)(=O)O)(O[C@H]2O[C@H](COS(=O)(=O)O)[C@@H](OS(=O)(=O)O)[C@H](OS(=O)(=O)O)[C@H]2OS(=O)(=O)O)[C@@H](OS(=O)(=O)O)[C@@H]1OS(=O)(=O)O [SOS, sucrose octasulfate]",Kd,[1],72.4 µM
same,Kd,"[2]; 10 mM phosphate, 100 mM NaCl, 50 mM ammonium sulfate, pH 6.5, 25° C., read-out: dissociation constant (Kd)",2.6 µM
same,affinity to SOS (binding isotherm),"[2]; compared with R136E, result in words",strong affinity
